Source: patent US12398111B2, “Triazine compounds and pharmaceutical use thereof” (Japan Tobacco Inc., priority 2014, dated 2025)

Molecular target: T1, human mPGES-1 (Homo sapiens, UniProt O14684)
T1 construct: made in house; host or cells: FreeStyle CHO-S cells (Chinese hamster ovary), transient transfection with pcDNA3.1(+)/human mPGES-1; microsome fraction used
T1 sequence (O14684 1-152): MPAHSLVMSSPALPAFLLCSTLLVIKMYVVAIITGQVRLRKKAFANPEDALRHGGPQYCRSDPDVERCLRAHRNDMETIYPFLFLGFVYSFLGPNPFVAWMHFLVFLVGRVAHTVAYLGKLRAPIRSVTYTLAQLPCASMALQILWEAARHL
Experiment: Evaluation of human mPGES-1 enzyme inhibitory activity (PGE2 measured by HTRF, microsome fraction of CHO-S cells expressing human mPGES-1)
Type: biochemical
Details: IC50 value; microsome fraction of CHO-S cells expressing human mPGES-1, PGE2 by HTRF
Procedure: That is, the amount of PGE2 produced by human mPGES-1 in the presence of a test article was measured by the HTRF (homogeneous time resolved fluorescence) method, based on which the human mPGES-1 enzyme inhibitory activity of the test article was determined.
1) Preparation of Human mPGES-1 Expressing Cell Microsome Fraction
A DNA fragment containing human mPGES-1, which is added with a BamHI recognition cleavage sequence immediately before the translation initiation codon and an EcoRI recognition cleavage sequence immediately after the translation termination codon was amplified by the PCR (Polymerase Chain Reaction) method using a human mPGES-1 expression plasmid DNA (pME-18S/iPGES-1) prepared in-house as a template. The purified DNA fragment was digested with BamHI and EcoRI, and ligated to pcDNA3.1(+) (Invitrogen, model number V790-20), similarly digested with BamHI and EcoRI, by using a DNA Ligation kit ver.2.1 (Takara Bio, model number 6022). The human mPGES-1 expression plasmid DNA was isolated from Escherichia coli DH5a (TOYOBO, model number DNA-903) transformed with the obtained ligation product. The base sequence of human mPGES-1 cloned to a vector was determined by the Dye Terminator method by using BigDye Terminator v3.1 Cycle Sequencing Kit (Applied Biosystems, #4337455).
Human mPGES-1 expression plasmid DNA was transfected into Chinese hamster ovary-derived cells (FreeStyle CHO-S Cell, Invitrogen, #R800-07) by using a transgene reagent (FreeStyle MAX Reagent (Invitrogen, #16447-100)), and cultured with shaking (8% CO2, 37° C.) in a medium containing 8 mmol/L L-glutamine (GIBCO FreeStyle CHO Expression Medium, Invitrogen, #12651-022) for 48 hr.
The CHO-S cells were suspended in Homogenate Buffer (100 mmol/L potassium phosphate (pH 7.4), 250 mmol/L Sucrose, 100 mmol/L EDTA, complete EDTA free (Roche, #1873580)). Using an ultrasonic disruptor UD-201 (Tomy Seiko), the suspended cells were disrupted at output:3, duty cycle:50 for 30 seconds. The precipitate was removed by centrifugation (1,000×g, 5 min, 4° C.), is and the supernatant was centrifuged (5,000×g, 10 min, 4° C.). The supernatant was further centrifuged (105,000×g, 60 min, 4° C.). The obtained precipitate was suspended in Resuspension Buffer (100 mmol/L potassium phosphate (pH 7.4), 250 mmol/L sucrose, 100 mmol/L EDTA, 10% glycerol) to give a microsome fraction.
The protein concentration of the microsome fraction was measured by the Bradford method (Protein Assay Kit, Bio-Rad). The microsome fraction was rapidly frozen in liquid nitrogen and preserved at −80° C. Human mPGES-1 in the microsome fraction was detected by Western Blot using rabbit anti-mPGES-1 polyclonal antibody (ThermoFisher Scientific, #PA1-10264).
2) Evaluation of Human mPGES-1 Enzyme Inhibitory Activity
A test article solution diluted with 0.1 mol/L potassium phosphate, pH 7.4 (hereinafter to be referred to as KPB) or DMSO (Nacalai Tesque, #13407-45) was added at 5 μL/well to 96 well V-bottom plate (Corning, #3363). The final DMSO concentration during the reaction was set to 2% (v/v). Furthermore, a microsome fraction of CHO-S cells expressing human mPGES-1, which was diluted with reduced GSH (12.5 mmol/L KPB solution, SIGMA, #G6529-25G) such that the protein concentration was 5 μg/mL, was added at 20 μL/well. The amount of the microsome fraction used is the amount of microsome fraction within a range where the amount of PGE2 produced under the reaction conditions shown below and the amount of microsome fraction used show linearity. To the blank was added reduced GSH (12.5 mmol/L KPB solution) at 20 μL/well.

IC50	SMILES
4.7 nM	Cc1cccc(COc2cccc(C(F)(F)F)c2-c2nc(O)nc(-c3ccc(C#Cc4ccc(F)cc4)cc3)n2)n1 [Example 2-117]
170 nM	CCc1cc(-c2nc(O)nc(-c3c(C)cccc3C)n2)ccc1Cl [Example 2-54]
52 nM	CCCOc1cccc(Cl)c1-c1nc(O)nc(-c2ccc(C(F)(F)F)cc2)n1 [Example 2-20]
0.5 nM	CCC(C)(C)C(=O)NCc1ccc(Cl)c(-c2nc(O)nc(-c3cccc(C(F)(F)F)c3)n2)c1 [Example 1-58]
1.7 nM	Cc1cccc(COc2cccc(C(F)(F)F)c2-c2nc(O)nc(-c3ccc(C#Cc4ccccc4)nc3)n2)n1 [Example 2-99]
307 nM	CN(Cc1ccc(Cl)c(-c2nc(O)nc(-c3ccccc3)n2)c1)C(=O)C1Cc2ccccc2C1 [Example 1-246]
1.6 nM	CO[C@](C)(C(=O)NC(C)c1ccc(Cl)c(-c2nc(O)nc(-c3ccc(F)c(C)c3)n2)c1)C(F)(F)F (single isomer, unassigned) [Example 1-188]
16 nM	CN(Cc1ccc(Cl)c(-c2nc(O)nc(-c3ccccc3)n2)c1)C(=O)C(C)(C)C(F)(F)F [Example 1-220]
4.3 nM	CC(C)(C)COc1ccc(-c2nc(O)nc(-c3cc(CO)ccc3C(F)(F)F)n2)cc1 [Example 1-207]
14 nM	Oc1nc(-c2ccc(C(F)(F)F)cc2)nc(-c2c(Cl)cccc2OCc2ccccc2)n1 [Example 2-32]
88 nM	CN(Cc1ccc(Cl)c(-c2nc(O)nc(-c3ccc(C#CC4CCCCC4)cc3)n2)c1)C(=O)C(C)(C)C(F)(F)F [Example 1-213]
6.5 nM	Cc1cccc(C#Cc2ccc(-c3nc(O)nc(-c4c(OCc5ccccn5)cccc4C(F)(F)F)n3)cc2)c1 [Example 2-101]
0.7 nM	CCCC(=O)NCc1ccc(Cl)c(-c2nc(O)nc(-c3ccc(C(F)(F)F)cc3)n2)c1 [Example 1-36]
32 nM	Cc1cccc(COc2cccc(C(F)(F)F)c2-c2nc(O)nc(-c3ccc(C#Cc4ccccc4OC(F)(F)F)cc3)n2)n1 [Example 2-129]
1.2 nM	CC(C)c1cccc(-c2nc(O)nc(-c3cc(CNC(=O)C(C)(C)C(F)(F)F)ccc3Cl)n2)c1 [Example 1-107]
24600 nM	Cc1cc(Cl)c(-c2nc(O)nc(-c3ccc(OCC4CC4)cc3)n2)cc1C(=O)O [Example 3-19]
50 nM	CN(CCc1ccc(Cl)c(-c2nc(O)nc(-c3ccc(OCC(C)(C)C)cc3)n2)c1)C(=O)C(C)(C)C(F)(F)F [Example 1-227]
0.6 nM	O=C(NCc1ccc(Cl)c(-c2nc(O)nc(-c3ccc(C(F)(F)F)cc3)n2)c1)C1CCCC1 [Example 1-30]
0.7 nM	Cc1cc(C)cc(-c2nc(O)nc(-c3cc(CNC(=O)C(C)(C)C(F)(F)F)ccc3Cl)n2)c1 [Example 1-93]
5.9 nM	CN(C)C(=O)NCc1ccc(Cl)c(-c2nc(O)nc(-c3ccc(C(F)(F)F)cc3)n2)c1 [Example 1-34]
1.9 nM	CC(C)(C(=O)NCc1ccc(Cl)c(-c2nc(O)nc(-c3ccc(OCCC4CC4)cc3)n2)c1)C(F)(F)F [Example 1-167]
0.4 nM	CC#CCOc1ccc(-c2nc(O)nc(-c3cc(CNC(=O)C(C)(C)C(F)(F)F)ccc3Cl)n2)cc1 [Example 1-146]
12 nM	Cc1cccc(COc2cccc(C(F)(F)F)c2-c2nc(O)nc(-c3ccc(C#Cc4cccc(Cl)c4)cc3)n2)n1 [Example 2-123]
5 nM	Oc1nc(-c2ccc(C#Cc3ccccc3)cc2)nc(-c2c(OCc3ccccn3)cccc2C(F)(F)F)n1 [Example 2-95]
450 nM	Cc1cccc(C)c1-c1nc(O)nc(-c2ccc(CC(C)C)cc2)n1 [Example 2-39]

IC50	SMILES
16 nM	CC(C)COc1ccc(-c2nc(O)nc(-c3c(Cl)cccc3OCc3ccccn3)n2)cc1 [Example 2-66]
15 nM	CC(C)(C(=O)NCc1ccc(Cl)c(-c2nc(O)nc(-c3ccc(C#CC4CCCCC4)cc3)n2)c1)C(F)(F)F [Example 1-191]
263 nM	CC1(C)CN(Cc2ccc(Cl)c(-c3nc(O)nc(-c4ccccc4)n3)c2)C1=O [Example 1-236]
21 nM	Oc1nc(-c2ccc(C#Cc3ccccn3)cc2)nc(-c2c(Cl)cccc2OCc2ccccc2)n1 [Example 2-96]
0.6 nM	CSc1ccc(-c2nc(O)nc(-c3cc(CNC(=O)C(C)(C)C(F)(F)F)ccc3Cl)n2)cc1 [Example 1-115]
219 nM	OCCOc1cccc(Cl)c1-c1nc(O)nc(-c2ccc(C(F)(F)F)cc2)n1 [Example 2-22]
73 nM	Oc1nc(-c2ccc(C(F)(F)F)cc2)nc(-c2c(F)cccc2Cl)n1 [Example 2-10]
0.6 nM	CC(C)(C(=O)NCc1ccc(Cl)c(-c2nc(O)nc(-c3cccc(C(F)(F)F)c3)n2)c1)C(F)(F)F [Example 1-59]
3.7 nM	Oc1nc(-c2ccc(OCC3CCC3)cc2)nc(-c2c(Cl)cccc2OCc2ccccn2)n1 [Example 2-75]
3.5 nM	CCC[C@H](C)Oc1ccc(-c2nc(O)nc(-c3cc(CNC(=O)C(C)(C)C(F)(F)F)ccc3Cl)n2)cc1 [Example 1-155]
39 nM	CCOc1cccc(Cl)c1-c1nc(O)nc(-c2ccc(C(F)(F)F)cc2)n1 [Example 2-17]
93 nM	COc1ccc(F)c(Cl)c1-c1nc(O)nc(-c2ccc(C(F)(F)F)cc2)n1 [Example 3-11]
1.3 nM	CO[C@](C)(C(=O)NCc1ccc(Cl)c(-c2nc(O)nc(-c3cccc(OC(F)(F)F)c3)n2)c1)C(F)(F)F [Example 1-103]
18 nM	CNC(=O)Cc1ccc(Cl)c(-c2nc(O)nc(-c3ccc(C(F)(F)F)cc3)n2)c1 [Example 1-26]
202 nM	CCOc1c(C)ccc(Cl)c1-c1nc(O)nc(-c2ccc(C(F)(F)F)cc2)n1 [Example 3-4]
0.5 nM	CC(C)(C(=O)NCc1ccc(Cl)c(-c2nc(O)nc(-c3ccc(OCCC(F)(F)F)cc3)n2)c1)C(F)(F)F [Example 1-142]
18 nM	Oc1nc(-c2ccc(C#Cc3cccc(C(F)(F)F)c3)cc2)nc(-c2c(OCc3ccccn3)cccc2C(F)(F)F)n1 [Example 2-104]
6.7 nM	COCc1cccc(-c2nc(O)nc(-c3cc(CNC(=O)C(C)(C)C)ccc3Cl)n2)c1 [Example 1-75]
11 nM	CC(C)OC(=O)NCc1ccc(Cl)c(-c2nc(O)nc(-c3cccc(C(C)(C)C)c3)n2)c1 [Example 1-83]
0.8 nM	Cc1cc(-c2nc(O)nc(-c3cc(CNC(=O)C4(C(F)(F)F)CC4)ccc3Cl)n2)ccc1F [Example 1-127]
1.6 nM	CS(=O)(=O)NCc1ccc(Cl)c(-c2nc(O)nc(-c3ccc(C(F)(F)F)cc3)n2)c1 [Example 1-20]
10 nM	CO[C@](C)(C(=O)NC(C)c1ccc(Cl)c(-c2nc(O)nc(-c3ccc(OCC(C)(C)C)cc3)n2)c1)C(F)(F)F (single isomer, unassigned) [Example 1-200]
0.7 nM	CO[C@](C)(C(=O)NCc1ccc(Cl)c(-c2nc(O)nc(-c3ccc(F)c(C)c3)n2)c1)C(F)(F)F [Example 1-106]
429 nM	CCCOc1ccc(-c2nc(O)nc(-c3c(C)cccc3C)n2)cc1 [Example 2-41]
0.7 nM	CC(C)(C)S(=O)(=O)NCc1ccc(Cl)c(-c2nc(O)nc(-c3ccc(C(F)(F)F)cc3)n2)c1 [Example 1-32]

Same assay, conditions: at 30 μM test article

inhibition at 30 µM	SMILES
44%	CCC(=O)N(CC)Cc1ccc(Cl)c(-c2nc(O)nc(-c3ccccc3)n2)c1 [Example 1-261]
28%	Cc1cccc(C)c1-c1nc(O)nc(-c2ccc(O)cc2)n1 [Example 2-6]
